# Results taken from patent US20020091273A1, “Method for the regioselective preparation of substituted benzo[g]quinoline3-carbonitriles and benzo[g]quinazolines” (American Home Products Corporation, priority 2000, published 2002).
# Counter-ions that a name gives are not always drawn.
row,Structure (SMILES),melting point
1,"COc1cc(CBr)c(Br)cc1OCc1ccccc1 [Example 1, 5-(Benzyloxy)-1-bromo-2-(bromomethyl)-4-methoxybenzene]",103 to 105 °C
2,"COc1cc2cc3c(=O)[nH]cnc3cc2cc1OCCN1CCOCC1 [Example 11, 7-Methoxy-8-(2-morpholin4-yl-ethoxy)-3H-benzo[g]quinazolin-4-one]",230 to 232 °C
3,"COc1cc(CCC#N)c(Br)cc1OCc1ccccc1 [Example 2, 3-(4-Benzyloxy-2-bromo-5-methoxyphenyl)-propionitrile]",52 to 53 °C
4,"COc1cc2cc(C(=O)OC(C)(C)C)c(N)cc2cc1OCc1ccccc1 [Example 7, 3-Amino-6-benzyloxy-7-methoxynaphthalene-2-carboxylic acid tert-butyl ester]",179 to 180 °C
5,"COc1cc2c(cc1OCc1ccccc1)C(C#N)(Sc1ccc(Cl)cc1)C2 (centres unmarked) [Example 4, 4-Benzyloxy-7-(4-chloro-phenylsulfanyl)-3-methoxybicyclo [4.2.0]octa-1,3,5-triene-7-carbonitrile]",114 to 115 °C
6,"COc1cc2c(cc1OCc1ccccc1)C(C#N)(Sc1ccccc1)C2 (centres unmarked) [Example 5, 4-Benzyloxy-3-methoxy-7-phenylsulfanylbicyclo [4.2.0]octa-1,3,5-triene-7-carbonitrile]",109 to 110 °C
7,"COc1cc2cc3c(=O)c(C#N)c[nH]c3cc2cc1OCc1ccccc1 [Example 8, 8-Benzyloxy-7-methoxy-4-oxo-1,4-dihydrobenzo[g]quinoline-3-carbonitrile]",> 300 °C
8,"COc1cc2cc(C(=O)OC(C)(C)C)c(N)cc2cc1O [Example 9, 3-Amino-6-hydroxy-7-methoxy-naphthalene-2-carboxylic acid tert-butyl ester]",262 to 263 °C
9,"COc1cc2cc(C(=O)OC(C)(C)C)c(N)cc2cc1OCCN1CCOCC1 [Example 10, 3-Amino-7-methoxy-6-(2-morpholin-4-yl-ethoxy)-naphthalene-2-carboxylic acid tert-butyl ester]",125 to 127 °C
10,"COc1cc2c(cc1OCc1ccccc1)C(C#N)C2 (centres unmarked) [Example 3, 4-Benzyloxy-3-methoxybicyclo[4.2.0]octa-1,3,5-triene-7-carbonitrile]",85 °C

# The next lines start with the values.
row,melting point,Structure (SMILES)
1,> 300 °C,"COc1cc2cc3c(=O)c(C#N)c[nH]c3cc2cc1O [Example 13, 8-Hydroxy-7-methoxy-4-oxo-1,4-dihydrobenzo[g]quinoline-3-carbonitrile]"
2,210 to 225 °C,"COc1cc2cc3c(Nc4ccc(Br)cc4F)ncnc3cc2cc1OCCN1CCOCC1 (as salt: hydrochloride) [Example 32, (4-Bromo-2-fluorophenyl)-[7-methoxy-8-(2-morpholin-4-yl-ethoxy)benzo[g]quinazolin4-yl]-amine]"
3,205 to 208 °C,"COc1cc(Nc2c(C#N)cnc3cc4cc(OCCCN5CCOCC5)c(OC)cc4cc23)c(Cl)cc1Cl [Example 25, 4-(2,4-Dichloro-5-methoxyphenylamino)-7-methoxy-8-(3-morpholin-4-yl-propoxy)benzo[g]quinoline-3-carbonitrile]"
4,241 to 243 °C,"COc1cc2cc(C#N)c(N)cc2cc1OCc1ccccc1 [Example 29, 3-Amino-6-benzyloxy-7-methoxynaphthalene-2-carbonitrile]"
5,258 to 260 °C,"COc1cc(Nc2ncnc3cc4cc(OCCN5CCOCC5)c(OC)cc4cc23)c(Cl)cc1Cl (as salt: hydrochloride) [Example 33, (2,4-Dichloro-5-methoxyphenyl)-[7-methoxy-8-(2-morpholin-4-yl-ethoxy)benzo[g]-quinazolin-4-yl]-amine]"
6,> 300 °C,"COc1cc2cc3c(Nc4ccc(Sc5nccn5C)c(Cl)c4)c(C#N)cnc3cc2cc1OCCN1CCOCC1 [Example 17, 4-[3-Chloro-4-(1-methyl-1H-imidazol-2-ylsulfanyl)phenylamino]-7-methoxy-8-(2-morpholin-4-yl-ethoxy)benzo[g]quinoline-3-carbonitrile]"
7,220 to 223 °C,"COc1cc(Nc2c(C#N)cnc3cc4cc(OCCCCl)c(OC)cc4cc23)c(Cl)cc1Cl [Example 24, 8-(3-Chloropropoxy)-4-(2,4-dichloro-5-methoxyphenylamino)-7-methoxybenzo[g]quinoline-3-carbonitrile]"
8,> 300 °C,"COc1cc2cc3c(Nc4ccc(Sc5nccn5C)c(Cl)c4)c(C#N)cnc3cc2cc1O [Example 15, 4-[3-Chloro-4-(1-methyl-1 H-imidazol-2-ylsulfanyl)phenylamino]-8-hydroxy-7-methoxybenzo[g]quinoline-3-carbonitrile]"
9,166 to 168 °C,"COc1cc2cc3c(Cl)ncnc3cc2cc1OCCN1CCOCC1 [Example 31, 4-Chloro-7-methoxy-8-(2-morpholin-4-yl-ethoxy)benzo[g]quinazoline]"
10,201 to 207 °C,"COc1cc2cc3c(Nc4ccc(Sc5nccn5C)c(Cl)c4)c(C#N)cnc3cc2cc1OCCn1ccnn1 [Example 22, 4-[3-Chloro-4-(1-methyl-1H-imidazol-2-ylsulfanyl)phenylamino]-7-methoxy-8-(2-[1,2,3]triazol-1-yl-ethoxy)benzo[g]quinoline-3-carbonitrile]"
11,> 300 °C,"COc1cc2cc3c(Cl)c(C#N)cnc3cc2cc1O [Example 14, 4-Chloro-8-hydroxy-7-methoxybenzo[g]quinoline-3-carbonitrile]"
12,275 to 280 °C,"COc1cc(Nc2ncnc3cc4cc(OCc5ccccc5)c(OC)cc4cc23)c(Cl)cc1Cl [Example 30, (8-Benzyloxy-7-methoxybenzo[g]quinazolin-4-yl)-(2,4-dichloro-5-methoxyphenyl)amine]"
13,275 °C (dec.),"COc1cc2cc3c(=O)c(C#N)c[nH]c3cc2cc1OCCN1CCOCC1 [Example 12, 7-Methoxy-8-(2-morpholin-4-yl-ethoxy)-4-oxo-1,4-dihydrobenzo[g]quinoline-3-carbonitrile]"
